The record followed here is the OPERA property sets (Mansouri et al. 2018).

Peptide text beside a SMILES is read from it.

For orientation: logP means the decadic logarithm of the partition coefficient of the neutral form, usually between octanol and water. The low end stands for a more hydrophilic compound, the high end for a more lipophilic compound. On to `CC1=CC(=O)C=C(C)C1=O`, for which the logP was 1.22.

Molecule `CC(=O)OC1CCCCC1NC(=O)N(CCCl)N=O` (stereo unspecified) yielded a logP of 1.98.

As for `CCn1nc2ccccc2n1`, the logP stood at 2.1. As to `NC(=O)c1ccccc1NC(=O)C(Cl)Cl`, the logP amounted to 1.68.

`Nc1nc2nn[nH]c2c(=O)[nH]1` yielded a logP of -0.71. With `Nc1ncnc2c1ncn2[C@@H]1O[C@@H]2COP(=O)(O)O[C@H]2[C@H]1O`, the logP was -2.96. `O=C1C=C(N2CC2)C(=O)C(N2CC2)=C1N1CC1` registered a logP of -0.13.

For the molecule `O=C(O)COc1cccc(C(F)(F)F)c1`, the logP stood at 2.36. In the case of `ClCBr`, the logP worked out at 1.41. `CCCCC(CC)COC(=O)n1cnc(CC(NC(=O)C2CCC(=O)N2)C(=O)N2CCCC2C(N)=O)c1` (stereo unspecified) displayed a logP of 1.82.

Molecule `O=S(=O)(Nc1ccc(-c2ccccc2)cc1)C(F)(F)F` returned a logP of 4.97. As for `O=[N+]([O-])C=Cc1ccc(Cl)cc1Cl`, the logP came out at 3.26. `C[C@]1(O)CC[C@H]2[C@@H]3CCC4=CC(=O)CC[C@@H]4[C@H]3CC[C@@]21C`: the logP came out at 2.99. The value for `C=CCC(CC=C)(NC(C)=O)C(N)=O` was 0.05; that for `CC1(C)Oc2c(O)cccc2C1=O` was 1.87; that for `NCCc1cccnc1` was -0.11. `Cn1cc(C(=O)O)c2ccccc21` registered a logP of 2. In turn, `COc1cccc2c1C(=N)c1c(O)c3c(c(O)c1C2=O)CC(O)(C(O)CO)CC3OC1CC(N2CCOCC2)C(O)C(C)O1` (stereo unspecified) showed a logP of 1.43.

For `O=[N+]([O-])c1cccc2ncccc12`, the lipophilicity (logP) came to 1.86. As to `CN(O)N=Nc1ccc(C(N)=O)cc1`, the logP is -0.22. Molecule `Cc1ccc(COC(=O)N(C)C)cc1` displayed a logP of 2.63. The molecule `COC(=O)Nc1nc2ccccc2[nH]1` yielded a logP of 1.52. The value for `CS(=O)(=O)c1ccc(N)cc1` was -0.12. In turn, `O=C(Nc1ccccc1)C(F)(F)F` came in with a logP of 2.21.

Molecule `CCCCNC(=O)NO` returned a logP of 0.32. `CC(=O)Nc1ccc(OC(C)=O)cc1`: the logP came out at 1.05. The molecule `C1CO1` gave a logP of -0.3. The value for `CCc1cccc(OCC(=O)O)c1` was 2.25.

Molecule `CNC(=O)Oc1ccccc1C` gave a logP of 1.46. As to `O=C(O)Cc1cccc(O)c1`, the logP stood at 0.85. The value for `O=C(O)CN1CCCCC1` was -1.05; that for `NS(=O)(=O)c1cc2c(cc1C(F)(F)F)NCNS2(=O)=O` was 0.36; that for `NNC(=O)c1ccccc1N` was -0.18. In turn, `O=C(Cc1cccs1)N[C@@H]1C(=O)N2C(C(=O)[O-])=C(C[n+]3ccccc3)CS[C@H]12` registered a logP of -1.62. The value for `O=C(O)c1cc2ccccc2[nH]1` was 2.31. Regarding `N#CCC(N)=C(C#N)C#N`, the logP is -0.13. `CC(C)c1cc([N+](=O)[O-])cc([N+](=O)[O-])c1O` returned a logP of 3.1. The molecule `CCCCCCc1ccncc1` came in with a logP of 4.35. Regarding `CCOC(=O)C(=Cc1cccc(Cl)c1)C(C)=O`, the logP worked out at 2.97. Turning to `CC(=O)N[C@@H](CC(N)=O)C(=O)N[C@H](C(N)=O)C(C)C`, the logP is -1.85. As to `COC(=O)c1ccccc1S(I)=C(N(C)C)N(C)C` (stereo unspecified), the lipophilicity (logP) is -0.7. As for `CC(=O)c1ccc(S(N)(=O)=O)cc1`, the lipophilicity (logP) was 0.2.

In the case of `O=C(Cc1ccccc1)c1ccccc1`, the logP was determined as 3.18. With `O=C(O)c1ccccc1O`, the logP is 2.26. Molecule `CC(=O)NC(=O)NC(C)=O` registered a logP of -0.68. In the case of `CC(=O)ONc1ccnc2ccccc12`, the logP stood at 0.97.

`O=c1[nH]c2ccccc2o1` yielded a logP of 1.16.

As for `CCc1ccc2c(c1)C(=O)c1ccc(NC(C)=O)cc1S2(=O)=O`, the logP was determined as 3.44. `c1ccc(-c2nc3ccccc3[nH]2)cc1` came in with a logP of 3.24.

In the case of `C#CC1(O)CCCCC1`, the logP was 1.73. `Cc1ccccc1OC(=O)c1ccc(N)cc1O`: the logP is 3.14. Molecule `O=C1CN=C(c2ccccc2F)c2ccccc2N1` returned a logP of 2.38.

`CC(CN(C)C)CN1c2ccccc2Sc2ccccc21` (stereo unspecified) returned a logP of 4.71. Turning to `Cc1ccc(C)c(C)c1`, the logP worked out at 3.63.

Turning to `COc1ccc(NC(C)=O)cc1`, the logP turned out to be 1.03. `OCCCc1ccncc1`: the logP was 0.58. With `Oc1nc(Cl)c(Cl)cc1Cl`, the logP is 3.21. In turn, `CC(=O)N[C@@H](Cc1ccccc1)C(=O)NCC(N)=O` (Ac-Phe-Gly-NH2) registered a lipophilicity (logP) of -0.5. `COc1cccnc1` displayed a logP of 0.99.

Regarding `NNC(=O)c1ccnc(Br)c1`, the logP worked out at 0.25.

Molecule `CC(=O)Nc1ncc([N+](=O)[O-])s1` displayed a logP of 1.3.

`CSc1ccc(C(=O)O)cc1` returned a log partition coefficient (logP) of 2.74. The value for `Cc1cccc2ncc(-c3ccccc3)c(=O)n12` was 2.59; that for `O=[N+]([O-])c1ccccc1Br` was 2.52.

`COC(=O)C(CC(C)C)NC(C)=O` (stereo unspecified) displayed a logP of 0.84. Regarding `Nc1nc2ccccc2[nH]1`, the logP amounted to 0.91.

`C=C(C)Cl` showed a logP of 2.

Molecule `ClCc1ccccc1` yielded a logP of 2.3. `CC(C(=O)O)(c1ccccc1)c1ccccc1`: the logP is 2.69.

For `CCNCCNCC`, the logP was 0.21. Consider `Cc1cccc(OCC(=O)NNC(C)C)c1`, for which the logP was 1.77. `C#CCC(O)(c1ccc(F)cc1)c1cccnc1` (stereo unspecified): the logP is 1.78. With `CCCOC(=O)c1ccccc1`, the logP worked out at 3.01.

For `O=Cc1cccc([N+](=O)[O-])c1`, the logP came to 1.47. For the molecule `CC(=O)OC(OC(C)=O)c1ccc([N+](=O)[O-])o1`, the logP worked out at 1.06. Regarding `Cc1c[nH]c2ccccc12`, the logP was determined as 2.6. The value for `Cc1cc(C)c(C)cc1C` was 4; that for `CCCCCCOCc1cccc(NC(=O)OCCN2CCCCC2)c1` was 4.97; that for `NC(=O)C1CCN(CCCN2c3ccccc3Sc3ccc(Cl)cc32)CC1` was 4.44. As for `CCN(CC)N=Nc1ccc([N+](=O)[O-])cc1`, the logP amounted to 4.17.

In turn, `NCCCCc1ccncc1` yielded a logP of 0.86. The value for `Cc1ccc2c(c1)c([N+](=O)[O-])cc[n+]2[O-]` was 1.43; that for `CC1(C)S[C@@H]2[C@H](NC(=O)C(C(=O)O)c3ccccc3)C(=O)N2[C@H]1C(=O)O` (stereo partly specified) was 1.13. The value for `CCN(CC)CCNC(=O)c1cc(I)c(N)cc1OC` was 3.09. Turning to `CNC(=O)Oc1cccc(Br)c1`, the logP was 2.25. Regarding `OCC(Cl)Cl`, the logP came to 0.37. Consider `CCNNC(=O)COc1ccccc1`, for which the logP amounted to 1. Molecule `CC(=O)N[C@@H](Cc1ccc(O)cc1)C(=O)N[C@@H](Cc1ccccc1)C(N)=O` (Ac-Tyr-Phe-NH2) showed a logP of 0.54. Take `COC1=CC(=O)c2ccccc2C1=O`: the logP was found to be 1.35.

In turn, `CCn1cnc2c(NC(C)=O)ncnc21` had a logP of -0.41.

With `O=C(O)CCc1ccccc1`, the logP amounted to 1.84. The molecule `O=C(O)C1COc2ccccc2O1` (stereo unspecified) gave a logP of 1.4. Molecule `CC1CN1C1=CC(=O)C(N2CC2C)=CC1=O` (stereo unspecified) showed a logP of 1.07. The figure for `Clc1ccc(Cl)c(Cl)c1Cl` is 4.6. For the molecule `O=C(O)Cc1cccc(C(F)(F)F)c1`, the logP stood at 2.62. `O=C(O)Cc1ccccc1Oc1ccc(Cl)cc1Cl` returned a log partition coefficient (logP) of 4.8. Molecule `CCSc1ccc2c(c1)N(CCCN1CCN(C)CC1)c1ccccc1S2` showed a logP of 5.41. The figure for `CC(=O)C(=Cc1ccc(Cl)cc1)C(C)=O` is 2.32; for `CNC(=O)Oc1cccc2c1OC(C)(C)O2` it is 1.7; for `Cc1cc(Cl)ccc1NC1=NCCN1` it is 1.8. Molecule `OCCN1CCN(CCCN2c3ccccc3Sc3ccc(C(F)(F)F)cc32)CC1` yielded a logP of 4.36. The value for `CNCC(O)c1ccc(O)cc1` (stereo unspecified) was -0.45; that for `CCCC(C)=O` was 0.91. The figure for `O=S(=O)(Nc1ccccc1)c1ccccc1` is 2.58; for `O=C(O)C=CC=Cc1ccccc1` it is 3.15.

For the molecule `COc1c(O)c(C)c(C)c(O)c1OC`, the logP is 1.6. Molecule `CNC1=CC(=O)C(NC)=CC1=O` returned a logP of 0.34. In turn, `Cc1ccc(OCC(=O)NNC(C)C)cc1` had a logP of 1.81. As for `CC12CCC3C(CCC4CC(=O)CCC43C)C1CCC2=O` (stereo unspecified), the log partition coefficient (logP) came out at 3.6. The figure for `C1CN2CCC1CC2` is 1.38; for `O=C(O)c1ccc(O)cc1O` it is 1.63; for `Oc1ccccc1-c1ccccc1` it is 3.09. Consider `CCOP(=S)(OCC)Oc1ccc(N)cc1`, for which the logP turned out to be 2.6.

`O=CN1CCCC1` returned a logP of -0.32.

In the case of `Brc1cnc2ccccc2c1`, the logP was 3.03. In turn, `CCC(C)c1ccccc1OCC(=O)O` (stereo unspecified) showed a logP of 3.32. The molecule `C=CCBr` returned a logP of 1.79.

In turn, `CCC(=O)N(C)C` gave a logP of -0.11. For `N#Cc1cccc(OCC(=O)O)c1`, the logP came out at 0.95. Molecule `CCCCNC(=O)c1ccc(S(N)(=O)=O)cc1` gave a logP of 1.05. The figure for `CCN(CC)CC(=O)NC1CCc2ccccc21` (stereo unspecified) is 2.74; for `CNC(=O)Oc1cccc(OC(C)C)c1` it is 1.96. With `CC#CC`, the logP was determined as 1.46. The figure for `O=C(O)c1ccc(Br)cc1` is 2.86. Molecule `Clc1ccccc1-c1c(Cl)cccc1Cl` registered a logP of 5.48. The molecule `COc1ccc(-c2cc3ccccn3c2)cc1` came in with a logP of 4.2. For `C=C(C)[C@H]1Cc2c(ccc3c2O[C@@H]2COc4cc(OC)c(OC)cc4[C@@H]2C3=O)O1`, the logP worked out at 4.1. `NCc1ccncc1` registered a lipophilicity (logP) of -0.38. In the case of `CC(=O)Nc1cccc(C(F)(F)F)c1`, the logP is 2.56. Regarding `CN1CCN(CCCN2c3ccccc3Sc3ccc(C(F)(F)F)cc32)CC1`, the logP came out at 5.03. Turning to `OCc1ccncc1`, the logP worked out at 0.06.

For the molecule `Nc1ccc(Cl)nn1`, the logP came out at 0.35. Molecule `CC(C)NC(C)C` showed a log partition coefficient (logP) of 1.4.

In the case of `C=CCOC(=O)c1ccccc1C(=O)OCC=C`, the lipophilicity (logP) was determined as 3.23. The figure for `NC(=O)C1(N2CCCCC2)CCN(CCCC(=O)c2ccc(F)cc2)CC1` is 2.02; for `OCc1cccnc1` it is -0.02.
